Test [1] concerns the target T1, recombinant human TYRO3 (Homo sapiens, UniProt Q06418).
T1 construct: purchased Invitrogen
T1 sequence (Q06418 41-890): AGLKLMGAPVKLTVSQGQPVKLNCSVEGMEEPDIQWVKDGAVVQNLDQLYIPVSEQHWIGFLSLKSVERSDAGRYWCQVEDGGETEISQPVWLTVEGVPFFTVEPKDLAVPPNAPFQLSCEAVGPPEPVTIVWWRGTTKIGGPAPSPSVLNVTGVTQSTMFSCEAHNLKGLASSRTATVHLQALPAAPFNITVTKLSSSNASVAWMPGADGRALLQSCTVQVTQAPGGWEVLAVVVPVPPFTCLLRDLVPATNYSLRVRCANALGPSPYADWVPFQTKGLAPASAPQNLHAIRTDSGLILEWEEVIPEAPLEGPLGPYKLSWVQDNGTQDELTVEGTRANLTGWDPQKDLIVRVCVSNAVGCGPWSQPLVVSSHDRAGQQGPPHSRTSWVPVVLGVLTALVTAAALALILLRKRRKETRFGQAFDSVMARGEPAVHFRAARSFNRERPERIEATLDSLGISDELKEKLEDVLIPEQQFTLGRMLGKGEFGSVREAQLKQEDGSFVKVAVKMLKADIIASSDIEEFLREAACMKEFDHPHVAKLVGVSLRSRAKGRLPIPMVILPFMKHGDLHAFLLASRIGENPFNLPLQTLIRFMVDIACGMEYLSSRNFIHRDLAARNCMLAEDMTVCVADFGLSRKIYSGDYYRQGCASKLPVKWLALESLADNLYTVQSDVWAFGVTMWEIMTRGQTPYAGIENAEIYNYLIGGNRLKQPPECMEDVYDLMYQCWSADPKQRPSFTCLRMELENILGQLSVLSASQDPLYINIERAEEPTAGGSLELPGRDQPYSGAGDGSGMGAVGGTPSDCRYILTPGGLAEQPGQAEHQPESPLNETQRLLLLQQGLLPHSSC
Briefly: Biochemical potency, HTRF KinEASE-TK kinase assay. Conditions: 1 nM TYRO3, 700 μM ATP. A digest of the protocol: (§1)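 Enzyme (AXL 5 nM; TYRO3 or MER 1 nM final) was preincubated with compound for 1 h at RT, then reacted for 2 h at RT with 800 nM biotinylated TK substrate and 700 µM ATP in HEPES pH 7.4, MgCl2, DTT, BSA, 1% DMSO. Percent activity came from the HTRF 665/620 ratio.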

Test [2] has as its target T2, recombinant human MER (Homo sapiens, UniProt Q12866).
T2 construct: purchased Invitrogen
T2 sequence (Q12866 21-999): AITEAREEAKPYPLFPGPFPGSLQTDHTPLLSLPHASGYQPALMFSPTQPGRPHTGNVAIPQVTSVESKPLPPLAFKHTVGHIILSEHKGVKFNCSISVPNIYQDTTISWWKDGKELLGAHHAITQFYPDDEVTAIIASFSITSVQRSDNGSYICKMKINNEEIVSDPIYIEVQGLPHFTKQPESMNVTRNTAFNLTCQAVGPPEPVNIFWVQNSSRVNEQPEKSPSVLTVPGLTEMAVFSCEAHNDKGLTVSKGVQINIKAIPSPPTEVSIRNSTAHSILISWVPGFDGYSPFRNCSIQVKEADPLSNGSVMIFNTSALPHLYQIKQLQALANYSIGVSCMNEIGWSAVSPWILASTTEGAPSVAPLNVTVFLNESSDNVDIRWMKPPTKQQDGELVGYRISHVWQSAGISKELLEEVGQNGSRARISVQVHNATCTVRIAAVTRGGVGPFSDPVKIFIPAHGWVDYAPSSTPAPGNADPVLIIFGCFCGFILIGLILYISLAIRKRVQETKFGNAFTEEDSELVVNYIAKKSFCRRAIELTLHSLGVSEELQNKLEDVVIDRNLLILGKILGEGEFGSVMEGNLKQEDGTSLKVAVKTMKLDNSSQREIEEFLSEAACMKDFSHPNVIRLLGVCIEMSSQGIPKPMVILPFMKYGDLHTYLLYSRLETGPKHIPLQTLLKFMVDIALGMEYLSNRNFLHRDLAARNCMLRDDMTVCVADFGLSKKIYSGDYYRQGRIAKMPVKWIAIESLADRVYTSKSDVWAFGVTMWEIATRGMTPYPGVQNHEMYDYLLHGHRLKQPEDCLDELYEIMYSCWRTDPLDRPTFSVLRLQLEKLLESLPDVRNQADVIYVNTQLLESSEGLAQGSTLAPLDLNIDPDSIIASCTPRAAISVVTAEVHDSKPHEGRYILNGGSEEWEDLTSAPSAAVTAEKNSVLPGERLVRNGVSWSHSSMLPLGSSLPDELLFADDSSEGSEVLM
Nature of the test: Biochemical potency, HTRF KinEASE-TK kinase assay. To be noted: 1 nM MER, 700 μM ATP. In outline:
as §1

Regarding `Cc1cccnc1-c1ccc(-c2c[nH]c3ncc(-c4ccc5c(c4)CC[C@@H](N4C6COCC4C6)CC5)cc23)cc1` [Example 1, 6-[(7S)-2-{3-[4-(3-Methylpyridin-2-yl)phenyl]-1H-pyrrolo[2,3-b]pyridin-5-yl}-6,7,8,9-tetrahydro-5H-benzo[7]annulen-7-yl]-3-oxa-6-azabicyclo[3.1.1]heptane], the IC50 in test [1] and in test [2] was less than 100 nM each time.
For the compound `Cc1cccnc1-c1ccc(-c2n[nH]c3ncc(-c4ccc5c(c4)CC[C@@H](N4C6COCC4C6)CC5)cc23)cc1` [Example 2, 6-[(7S)-2-{3-[4-(3-Methylpyridin-2-yl)phenyl]-2H-pyrazolo[3,4-b]pyridin-5-yl}-6,7,8,9-tetrahydro-5H-benzo[7]annulen-7-yl]-3-oxa-6-azabicyclo[3.1.1]heptane], the IC50 in test [1] is less than 100 nM; in test [2], 100 to 1000 nM.
As for `COCCOc1cccnc1-c1ccc(-c2c[nH]c3ncc(-c4ccc5c(c4)CC[C@@H](N4C6COCC4C6)CC5)cc23)cc1` [Example 3, 6-[(7S)-2-(3-{4-[3-(2-Methoxyethoxy)pyridin-2-yl]phenyl}-1H-pyrrolo[2,3-b]pyridin-5-yl)-6,7,8,9-tetrahydro-5H-benzo[7]annulen-7-yl]-3-oxa-6-azabicyclo[3.1.1]heptane], the half-maximal inhibitory concentration (IC50) in test [1] and in test [2] was less than 100 nM throughout.
Take `Cc1nncn1-c1ccc(-c2n[nH]c3ncc(-c4ccc5c(c4)CC[C@@H](N4C6COCC4C6)CC5)cc23)cc1` [Example 11, 6-[(7S)-2-{3-[4-(3-Methyl-4H-1,2,4-triazol-4-yl)phenyl]-1H-pyrazolo[3,4-b]pyridin-5-yl}-6,7,8,9-tetrahydro-5H-benzo[7]annulen-7-yl]-3-oxa-6-azabicyclo[3.1.1]heptane]: the IC50 in test [1] and in test [2] was more than 1000 nM each time.
For the compound `c1ccc(-c2ccc(-c3c[nH]c4ncc(-c5ccc6c(c5)CC[C@@H](N5C[C@@H]7C[C@H]5CO7)CC6)cc34)cc2)nc1` [Example 33, (1S,4S)-5-[(7S)-3-[3-(4-Pyridin-2-ylphenyl)-1H-pyrrolo[2,3-b]pyridin-5-yl]-6,7,8,9-tetrahydro-5H-benzo[7]annulen-7-yl]-2-oxa-5-azabicyclo[2.2.1]heptane], the half-maximal inhibitory concentration (IC50) in test [1] and in test [2] was 100 to 1000 nM in each case.
On to `Fc1cc(-c2c[nH]c3ncc(-c4ccc5c(c4)CC[C@@H](N4C6COCC4C6)CC5)cc23)ccc1-c1ccccn1` [Example 40, 6-[(7S)-2-{3-[3-Fluoro-4-(pyridin-2-yl)phenyl]-1H-pyrrolo[2,3-b]pyridin-5-yl}-6,7,8,9-tetrahydro-5H-benzo[7]annulen-7-yl]-3-oxa-6-azabicyclo[3.1.1]heptane], for which the IC50 in test [1] and in test [2] was 100 to 1000 nM in each case.
On to `c1cc(-c2ccc(-c3c[nH]c4ncc(-c5ccc6c(c5)CC[C@@H](N5C7COCC5C7)CC6)cc34)cc2)ccn1` [Example 41, 6-[(7S)-2-{3-[4-(Pyridin-4-yl)phenyl]-1H-pyrrolo[2,3-b]pyridin-5-yl}-6,7,8,9-tetrahydro-5H-benzo[7]annulen-7-yl]-3-oxa-6-azabicyclo[3.1.1]heptane], for which the IC50 in test [1] was more than 1000 nM; in test [2], 100 to 1000 nM.
As to `Fc1cccnc1-c1ccc(-c2c[nH]c3ncc(-c4ccc5c(c4)CC[C@@H](N4C6COCC4C6)CC5)cc23)cc1` [Example 42, 6-[(7S)-2-{3-[4-(3-Fluoropyridin-2-yl)phenyl]-1H-pyrrolo[2,3-b]pyridin-5-yl}-6,7,8,9-tetrahydro-5H-benzo[7]annulen-7-yl]-3-oxa-6-azabicyclo[3.1.1]heptane], the IC50 in test [1] and in test [2] was 100 to 1000 nM each time.
As to `Clc1cccnc1-c1ccc(-c2c[nH]c3ncc(-c4ccc5c(c4)CC[C@@H](N4C6COCC4C6)CC5)cc23)cc1` [Example 43, 6-[(7S)-2-{3-[4-(3-Chloropyridin-2-yl)phenyl]-1H-pyrrolo[2,3-b]pyridin-5-yl}-6,7,8,9-tetrahydro-5H-benzo[7]annulen-7-yl]-3-oxa-6-azabicyclo[3.1.1]heptane], the IC50 in test [1] and in test [2] was 100 to 1000 nM each time.
`Clc1cc(-c2c[nH]c3ncc(-c4ccc5c(c4)CC[C@@H](N4C6COCC4C6)CC5)cc23)ccc1-c1ccccn1` [Example 44, 6-[(7S)-2-{3-[3-Chloro-4-(pyridin-2-yl)phenyl]-1H-pyrrolo[2,3-b]pyridin-5-yl}-6,7,8,9-tetrahydro-5H-benzo[7]annulen-7-yl]-3-oxa-6-azabicyclo[3.1.1]heptane]: the IC50 in test [1] and in test [2] was 100 to 1000 nM each time.
As to `c1cc(-n2cc(-c3c[nH]c4ncc(-c5ccc6c(c5)CC[C@@H](N5C7COCC5C7)CC6)cc34)cn2)ccn1` [Example 45, 6-[(7S)-2-{3-[1-(Pyridin-4-yl)-1H-pyrazol-4-yl]-1H-pyrrolo[2,3-b]pyridin-5-yl}-6,7,8,9-tetrahydro-5H-benzo[7]annulen-7-yl]-3-oxa-6-azabicyclo[3.1.1]heptane], the IC50 in test [1] and in test [2] was more than 1000 nM each time.
With `N#Cc1cccnc1-c1ccc(-c2c[nH]c3ncc(-c4ccc5c(c4)CC[C@@H](N4C6COCC4C6)CC5)cc23)cc1` [Example 46, 2-(4-{5-[(7S)-7-{3-Oxa-6-azabicyclo[3.1.1]heptan-6-yl}-6,7,8,9-tetrahydro-5H-benzo[7]annulen-2-yl]-1H-pyrrolo[2,3-b]pyridin-3-yl}phenyl)pyridine-3-carbonitrile], the IC50 in test [1] and in test [2] was 100 to 1000 nM in each case.
On to `Cc1cncnc1-c1ccc(-c2c[nH]c3ncc(-c4ccc5c(c4)CC[C@@H](N4C6COCC4C6)CC5)cc23)cc1` [Example 47, 6-[(7S)-2-{3-[4-(5-Methylpyrimidin-4-yl)phenyl]-1H-pyrrolo[2,3-b]pyridin-5-yl}-6,7,8,9-tetrahydro-5H-benzo[7]annulen-7-yl]-3-oxa-6-azabicyclo[3.1.1]heptane], for which the IC50 in test [1] and in test [2] was less than 100 nM throughout.
Consider `Cc1nccnc1-c1ccc(-c2c[nH]c3ncc(-c4ccc5c(c4)CC[C@@H](N4C6COCC4C6)CC5)cc23)cc1` [Example 48, 6-[(7S)-2-{3-[4-(3-Methylpyrazin-2-yl)phenyl]-1H-pyrrolo[2,3-b]pyridin-5-yl}-6,7,8,9-tetrahydro-5H-benzo[7]annulen-7-yl]-3-oxa-6-azabicyclo[3.1.1]heptane], for which the IC50 in test [1] and in test [2] was 100 to 1000 nM each time.
Regarding `Cc1ccnnc1-c1ccc(-c2c[nH]c3ncc(-c4ccc5c(c4)CC[C@@H](N4C6COCC4C6)CC5)cc23)cc1` [Example 49, 6-[(7S)-2-{3-[4-(4-Methylpyridazin-3-yl)phenyl]-1H-pyrrolo[2,3-b]pyridin-5-yl}-6,7,8,9-tetrahydro-5H-benzo[7]annulen-7-yl]-3-oxa-6-azabicyclo[3.1.1]heptane], the IC50 in test [1] and in test [2] was less than 100 nM each time.
On to `Cc1cnc(-c2ccc(-c3c[nH]c4ncc(-c5ccc6c(c5)CC[C@@H](N5C7COCC5C7)CC6)cc34)cc2)c(C)n1` [Example 50, 6-[(7S)-2-{3-[4-(3,5-Dimethylpyrazin-2-yl)phenyl]-1H-pyrrolo[2,3-b]pyridin-5-yl}-6,7,8,9-tetrahydro-5H-benzo[7]annulen-7-yl]-3-oxa-6-azabicyclo[3.1.1]heptane], for which the half-inhibitory concentration (IC50) in test [1] and in test [2] was 100 to 1000 nM in each case.

By IC50 is commonly meant the concentration that inhibits the measured activity by half.

The values are drawn from patent US12195482B1 (Arcus Biosciences, Inc., priority 2022, dated 2025).
